This is an account of results in PubChem BioAssay (NCI).

Common to all, as to test: DTP human tumour cell line panel, 48 h
Test [1] deals with PC-3 prostate.
Test [2] deals with SF-295 CNS.
For test [3], the system named is MALME-3M melanoma.
Test [4] has as its system SK-OV-3 ovarian.
For test [5], the system named is SN12C renal.
Test [6] deals with LOX IMVI melanoma.
Test [7] relates to SK-MEL-28 melanoma.
For test [8], the system named is HL-60(TB) leukemia.
Test [9] relates to K-562 leukemia.
Test [10] deals with RXF 393 renal.

The structures appear in SMILES notation. Values joined by “and” are separate entries in the source; they are usually repeats but may differ in a detail not shown here. Identical values can stand only once.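 Results reflect a 48-hour exposure of cells in 96-well plates to compound at five concentrations. GI50 marks 50% less growth. TGI is the concentration that stops growth completely.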

Broadly, the TGI is the concentration at which net growth stops. As for `NP1(Oc2ccc(F)cc2)=NP(N)(Oc2ccc(F)cc2)=NP(Oc2ccc(F)cc2)(Oc2ccc(F)cc2)=N1` (configuration not stated), the TGI in [1] was determined as 16.4 µM; in test [2], 15.4 µM; in [3], 18.7 µM; in [4] it was 27.2 µM; in test [5], 18.5 µM; in test [6] it was 19.7 µM. Also, the TGI is 25.2 µM in test [7] and 22.3 µM in test [8].

Turning to `CC1=C(C(=S)Nc2ccc(Cl)c(C(=O)OC(C)C)c2)SCCO1`, the TGI in [1] was 46.4 µM; in test [9], 43.6 µM; in test [2], 36.4 µM; in test [3], 36.9 µM; in test [4] it was 54.8 µM; in [5], 32.9 µM. The TGI in test [6] turned out to be 28.8 µM; in test [7] it was 35.4 µM; in test [8], 37.2 µM.

By GI50 is commonly meant the concentration giving 50% growth inhibition. For `COc1ccc(/C=C\c2cc(OC)c(OC)c(OC)c2)cc1NC(=O)/C=C/c1cc(OC)c(OC)c(OC)c1`, the GI50 in test [1] is 3.09 µM; in test [10], 2.66 µM; in test [5] it was 4.56 µM; in test [6], 4.9 µM; in test [7], 3.42 µM; in test [8], 1.95 µM. Moreover, the TGI in test [1] is more than 100 µM; in [10], 8.96 µM; in test [5] it was more than 100 µM; in [6], more than 100 µM; in test [7], more than 100 µM; in [8], 8.03 µM.

Take `O=C1c2ccccc2C(=O)c2c1ccc1c3ccccc3n(-c3ccccc3)c21`: the TGI in [1] was more than 100 µM; in test [9], 29.8 µM; in test [10], 34.2 µM; in test [2], 37.2 µM; in test [3] it was 44.6 µM; in test [4] it was more than 100 µM. Also, the TGI came out at 32.3 µM in test [5], 30.4 µM in test [6], 34.2 µM in [7] and 8.47 µM in test [8].

Regarding `CC1CCc2c(C(=O)Nc3ncc(Cc4cccc([N+](=O)[O-])c4)s3)csc2C1` (configuration not stated), the GI50 in test [1] is 0.618 µM; in test [9], 0.213 µM; in test [10] it was 0.938 µM; in test [2], 0.4 µM; in test [3], 1 µM; in [4], 0.436 µM. The GI50 in test [5] was 1.49 µM; in test [6], 0.48 µM; in test [7] it was 3.66 µM; in test [8], 0.324 µM. Besides, the TGI in test [1] was more than 100 µM; in test [9] it was more than 100 µM; in test [10] it was 4.02 µM; in test [2], more than 100 µM; in [3], more than 100 µM; in [4] it was more than 100 µM. The TGI in [5] was more than 100 µM; in test [6], more than 100 µM; in test [7], more than 100 µM; in test [8], 3.8 µM.

Turning to `CC(C)(C)n1cc(-c2ccnc(NCCCNS(=O)(=O)c3cccc4ccccc34)c2)c(-c2cccc(O)c2)n1`, the GI50 is 1.85 µM in [1]; 1.48 µM in test [9]; 1.52 µM in test [10]; 1.8 µM in [2]; 1.51 µM in test [3]; 2.63 µM in test [4]. The GI50 is 1.73 µM in test [5], 1.73 µM in [6], 1.67 µM in test [7] and 2.68 µM in [8]. For the same compound, the TGI in [1] is 5.57 µM; in test [9] it was more than 100 µM; in test [10], 3.06 µM; in [2], 3.52 µM; in test [3], 3.18 µM; in test [4] it was 7.23 µM. Besides, the TGI worked out at 3.33 µM in [5], 3.28 µM in [6], 3.24 µM in [7] and 7.26 µM in [8].

As for `C=C1C(=O)C23C(O)CC4C(C)(C)CCC(O)C4(C)C2CC(OC(C)=O)C1[C@H]3O` (some centres not stated), the TGI worked out at 23.7 µM in [1]; 10.1 µM in test [9]; 5.26 µM in [10]; 21.6 µM in test [2]; 9.42 µM in test [3]; 41.4 µM in test [4]. Besides, the TGI amounted to 12 µM in [5], 15.8 µM in test [6], 8.19 µM in [7] and 3.53 µM in test [8].

For the compound `Nc1nc(N)c(CCCCc2ccc([N+](=O)[O-])cc2)c(N)n1`, the TGI in [1], in [9], in test [10], in test [2], in test [3] and in test [4] was more than 100 µM in each case. Besides, the TGI in [5], in test [6] and in test [8] was more than 100 µM each time.

Take `O=C1OC(c2ccccc2)=N/C1=C\c1ccccc1`: the TGI in test [1] was more than 100 µM; in [9], > 100 µM and 46.3 µM; in [10] it was more than 100 µM; in test [2], more than 100 µM; in test [4], more than 100 µM; in test [5], more than 100 µM. Moreover, the TGI in test [6] is 51.8 µM and 31.6 µM; in test [7] it was more than 100 µM; in test [8], 99.2 µM and 84.4 µM. Also, the GI50 in [9] was > 100 µM and 19.8 µM; in test [10], > 100 µM and 43 µM.

Consider `COC(=O)[C@]12CC[C@@H](C)[C@H](C)[C@@H]1C1=CC[C@@H]3[C@@]4(C)C[C@@H](OC(C)=O)[C@H](OC(C)=O)[C@@](C)(COC(C)=O)[C@@H]4[C@H](O)C[C@@]3(C)[C@]1(C)CC2`, for which the GI50 in test [1] was 0.535 µM; in [9], 0.356 µM; in test [10], 6.88 µM; in [2], 2.84 µM; in test [3], 3.82 µM; in [4] it was 3.1 µM. Further, the results for the GI50 in test [6], in test [7] and in test [8] were 0.54 µM, 2.74 µM and 0.59 µM, respectively. Besides, the TGI in [1] is more than 100 µM; in [9], more than 100 µM; in test [10], 61.4 µM; in test [2], more than 100 µM; in test [3], 74.8 µM; in [4] it was more than 100 µM. The values for the TGI in test [6], in test [7] and in test [8] were more than 100 µM, more than 100 µM and 11.4 µM, respectively.
